According to article PMC3070159 (Journal of medicinal chemistry, 2010):

Target: T1, human sEH (Homo sapiens, UniProt P34913)
T1 sequence (P34913 1-555): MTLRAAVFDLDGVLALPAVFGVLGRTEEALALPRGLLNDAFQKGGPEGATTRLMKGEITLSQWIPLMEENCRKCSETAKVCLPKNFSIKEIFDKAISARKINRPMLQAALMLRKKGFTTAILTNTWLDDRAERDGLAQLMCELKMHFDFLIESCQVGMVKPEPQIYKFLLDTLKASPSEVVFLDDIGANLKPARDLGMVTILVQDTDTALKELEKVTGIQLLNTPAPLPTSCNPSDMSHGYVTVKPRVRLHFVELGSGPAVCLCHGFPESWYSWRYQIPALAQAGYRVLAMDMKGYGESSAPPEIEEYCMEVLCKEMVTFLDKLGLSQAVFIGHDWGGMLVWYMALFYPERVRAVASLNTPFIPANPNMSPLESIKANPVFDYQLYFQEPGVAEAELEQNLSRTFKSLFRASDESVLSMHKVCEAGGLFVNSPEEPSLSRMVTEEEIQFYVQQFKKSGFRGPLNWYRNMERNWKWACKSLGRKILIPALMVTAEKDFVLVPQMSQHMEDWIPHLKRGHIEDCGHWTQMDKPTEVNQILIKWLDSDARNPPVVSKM
Experiment: fluorescent substrate
Type: biochemical

fold increase in potency relative to N4-methyl substituted analog 16c (human sEH IC50 ratio)	fold increase in potency relative to N4-unsubstituted analog 24c (human sEH IC50 ratio)	SMILES	change fold
		CC(C)(C)OC(=O)N1CCN(CCCCOc2ccccc2NC(=O)NC23CC4CC(CC(C4)C2)C3)CC1 [Compound 21a]	191
		CC(=O)N1CCN(CCCCOc2ccc(NC(=O)NC34CC5CC(CC(C5)C3)C4)cc2)CC1 [Compound 29c, 1-(4-(4-(4-acetylpiperazin-1-yl)butoxy)phenyl)-3-adamantan-1-yl urea]	−2.9
5.4 fold	47.2 fold	CC(=O)N1CCN(CCCOc2ccc(NC(=O)NC34CC5CC(CC(C5)C3)C4)cc2)CC1 [Compound 28c, 1-(4-(3-(4-acetylpiperazin-1-yl)propoxy)phenyl)-3-adamantan-1-ylurea]	
